Source: patent US20210122757A1, “SPIROCYCLIC COMPOUNDS AS MODULATORS OF INDOLEAMINE 2,3-DIOXYGENASE” (PHENEX DISCOVERY VERWALTUNGS-GMBH, priority 2018, published 2021)

Biological target: T1, Indoleamine 2,3-dioxygenase (Homo sapiens, UniProt P14902)
T1 construct: endogenous in cells; host or cells: SKOV-3 (ATCC HTB-77), stimulated with 50 ng/ml interferon gamma
Experiment: SKOV-3 Cellular Indoleamine 2,3-dioxygenase Assay
Conditions: SKOV-3 cells, 50 ng/ml Interferon gamma, 100 μM L-Tryptophan, 24 hours, N-Formylkynurenin fluorescence detection; read-out: cell based activity (IC50)
Experimental: SKOV-3 Cellular Indoleamine 2,3-dioxygenase Assay
SKOV-3 cells were obtained from the American Type Culture Collection (ATCC® HTB-77™) and maintained in McCoy's medium (Pan Biotech) supplemented with 10% fetal bovine serum and 1% Penicillin/Streptomycin. Cells were kept at 37° C. in a humidified incubator with 5% CO2. For assay preparation, cells were seeded at a density of 2*10^5/ml into black clear bottom 96 well plates in 100 μl medium/well supplemented with 50 ng/ml Interferon gamma (eBioscience, Thermo Fisher Scientific). After cells fully adhered to the plate, dilution series of compounds were added in medium containing additional L-Tryptophan to a final L-Tryptophan concentration of 100 μM. The cells were incubated for 24 hours. Detection of produced N-Formylkynurenin was performed by addition of 3-Methylpiperidine to a final concentration of 200 mM. The plates were sealed and heated to 65° C. for 20 minutes in a water bath. After cooling the fluorescence of each well was recorded with a Victor™X4 (PerkinElmer) plate reader at an emission wavelength of 535 nm and excitation at 405 nm (Tomek et al.; Anal Bioanal Chem (2013) 405:2515-2524, Tomek et al.; Biochim Biophys Acta. 2015 September; 1850(9):1772-80).

T1 sequence (P14902 whole entry): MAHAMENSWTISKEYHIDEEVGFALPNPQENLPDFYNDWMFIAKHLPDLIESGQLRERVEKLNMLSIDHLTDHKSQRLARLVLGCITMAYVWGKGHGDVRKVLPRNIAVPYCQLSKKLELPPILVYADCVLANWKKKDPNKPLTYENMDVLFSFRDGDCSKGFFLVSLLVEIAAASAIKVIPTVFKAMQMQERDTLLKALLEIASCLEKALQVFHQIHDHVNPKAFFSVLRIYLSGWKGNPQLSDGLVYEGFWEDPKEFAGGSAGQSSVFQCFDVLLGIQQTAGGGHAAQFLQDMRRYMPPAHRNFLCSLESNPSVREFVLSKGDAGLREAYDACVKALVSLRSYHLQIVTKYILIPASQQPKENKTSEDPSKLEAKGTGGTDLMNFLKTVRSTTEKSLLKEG

SMILES | IC50 [nM]
CCC(C(=O)Nc1ccc(Cl)cn1)C1CCC2(CC1)COc1cc(C(F)(F)F)ccc12 (single isomer, unassigned) [Example 10b, N-(5-chloropyridin-2-yl)-2-(6-(trifluoromethyl)-2H-spiro[benzofuran-3,1′-cyclohexan]-4′-yl)butanamide] | < 50
CCC(C(=O)Nc1ccc(Cl)cn1)C1CCC2(CC1)COc1cc(C(F)(F)F)ccc12 (single isomer, unassigned) [Example 10c, N-(5-chloropyridin-2-yl)-2-(6-(trifluoromethyl)-2H-spiro[benzofuran-3,1′-cyclohexan]-4′-yl)butanamide] | < 50
CCC(C(=O)Nc1ccc(Cl)cn1)C1CCC2(CC1)COc1cc(C(F)(F)F)ccc12 (single isomer, unassigned) [Example 10d, N-(5-chloropyridin-2-yl)-2-(6-(trifluoromethyl)-2H-spiro[benzofuran-3,1′-cyclohexan]-4′-yl)butanamide] | < 50
CCC(C(=O)Nc1ccc(Cl)cn1)C1CCC2(CC1)COc1cc(C(F)(F)F)ccc12 (single isomer, unassigned) [Example 10e, N-(5-chloropyridin-2-yl)-2-(6-(trifluoromethyl)-2H-spiro[benzofuran-3,1′-cyclohexan]-4′-yl)butanamide] | ≥ 50
CC(c1nc2cc(Cl)ccc2[nH]1)C1CCC2(CC1)COc1cc(C(F)(F)F)ccc12 (single isomer, unassigned) [Example 11b, 5-Chloro-2-(1-(6-(trifluoromethyl)-2H-spiro[benzofuran-3,1′-cyclohexan]-4′-yl)ethyl)-1H-benzo[d]imidazole] | ≥ 50
CC(c1nc2cc(Cl)ccc2[nH]1)C1CCC2(CC1)COc1cc(C(F)(F)F)ccc12 (single isomer, unassigned) [Example 11c, 5-Chloro-2-(1-(6-(trifluoromethyl)-2H-spiro[benzofuran-3,1′-cyclohexan]-4′-yl)ethyl)-1H-benzo[d]imidazole] | < 50
CC(c1nc2cc(Cl)ccc2[nH]1)C1CCC2(CC1)COc1cc(C(F)(F)F)ccc12 (single isomer, unassigned) [Example 11d, 5-Chloro-2-(1-(6-(trifluoromethyl)-2H-spiro[benzofuran-3,1′-cyclohexan]-4′-yl)ethyl)-1H-benzo[d]imidazole] | < 50
CC(c1nc2cc(Cl)ccc2[nH]1)C1CCC2(CC1)COc1cc(C(F)(F)F)ccc12 (single isomer, unassigned) [Example 11e, 5-Chloro-2-(1-(6-(trifluoromethyl)-2H-spiro[benzofuran-3,1′-cyclohexan]-4′-yl)ethyl)-1H-benzo[d]imidazole] | < 50
CC(C(=O)NC1Cc2ccc(F)cc21)C1CCC2(CC1)COc1cc(C(F)(F)F)ccc12 (single isomer, unassigned) [Example 12a] | ≥ 50
CC(C(=O)NC1Cc2ccc(F)cc21)C1CCC2(CC1)COc1cc(C(F)(F)F)ccc12 (single isomer, unassigned) [Example 12b] | ≥ 50
O=C(C[C@H]1CC[C@@]2(CC1)COc1cc(C(F)(F)F)ccc12)Nc1ccc(Cl)cc1F (single isomer, unassigned) [Example 14a, N-(4-chloro-2-fluorophenyl)-2-(6-(trifluoromethyl)-2H-spiro[benzofuran-3,1′-cyclohexan]-4′-yl)acetamide] | < 50
O=C(C[C@H]1CC[C@@]2(CC1)COc1cc(C(F)(F)F)ccc12)Nc1ccc(Cl)cc1F (single isomer, unassigned) [Example 14b, N-(4-chloro-2-fluorophenyl)-2-(6-(trifluoromethyl)-2H-spiro[benzofuran-3,1′-cyclohexan]-4′-yl)acetamide] | ≥ 50
C[C@H](C(=O)Nc1ccc(Cl)cc1)[C@H]1CC[C@@]2(CC1)COc1cc(C(F)(F)F)ccc12 [Example 3b, (S)—N-(4-Chlorophenyl)-2-((3S,4′r)-6-(trifluoromethyl)-2H-spiro[benzofuran-3,1′-cyclohexan]-4′-yl)propanamide] | < 50
C[C@@H](C(=O)Nc1ccc(Cl)cc1)[C@H]1CC[C@@]2(CC1)COc1cc(C(F)(F)F)ccc12 [Example 3c, (R)—N-(4-Chlorophenyl)-2-((3R,4′r)-6-(trifluoromethyl)-2H-spiro[benzofuran-3,1′-cyclohexan]-4′-yl)propanamide] | < 50
C[C@H](C(=O)Nc1ccc(Cl)cc1)[C@H]1CC[C@]2(CC1)COc1cc(C(F)(F)F)ccc12 [Example 3d, (S)—N-(4-Chlorophenyl)-2-((3R,4′s)-6-(trifluoromethyl)-2H-spiro[benzofuran-3,1′-cyclohexan]-4′-yl)propanamide] | < 50
C[C@@H](C(=O)Nc1ccc(Cl)cc1)[C@H]1CC[C@]2(CC1)COc1cc(C(F)(F)F)ccc12 [Example 3e, (R)—N-(4-chlorophenyl)-2-((3S,4′s)-6-(trifluoromethyl)-2H-spiro[benzofuran-3,1′-cyclohexan]-4′-yl)propanamide] | ≥ 50
C[C@H](C(=O)Nc1ccc(Cl)cc1)[C@H]1CC[C@]2(CC1)COc1cc(C(F)F)ccc12 [Example 13, (S)—N-(4-chlorophenyl)-2-((3R,4′s)-6-(difluoromethyl)-2H-spiro[benzofuran-3,1′-cyclohexan]-4′-yl)propanamide] | < 50
